Results published in ChEMBL document CHEMBL5625172, “Synthesis and evaluation of dihydrofuro[2,3-b]pyridine derivatives as potent IRAK4 inhibitors” (Eur J Med Chem, 2023).
pIC50, pKd: −log10 of the molar value. Calls of active or inactive are those of the source. The calls are words filed in the database; no cut-off is given here.

Columns and labels:
[1] = biological target: T1, Interleukin-1 receptor-associated kinase 4 (Homo sapiens, UniProt Q9NWZ3); test: Inhibition of IRAK4 (unknown origin) using FAM-labeled peptide as substrate incubated for 10 mins in presence of ATP by mobility shift assay
T1 sequence (Q9NWZ3 whole entry): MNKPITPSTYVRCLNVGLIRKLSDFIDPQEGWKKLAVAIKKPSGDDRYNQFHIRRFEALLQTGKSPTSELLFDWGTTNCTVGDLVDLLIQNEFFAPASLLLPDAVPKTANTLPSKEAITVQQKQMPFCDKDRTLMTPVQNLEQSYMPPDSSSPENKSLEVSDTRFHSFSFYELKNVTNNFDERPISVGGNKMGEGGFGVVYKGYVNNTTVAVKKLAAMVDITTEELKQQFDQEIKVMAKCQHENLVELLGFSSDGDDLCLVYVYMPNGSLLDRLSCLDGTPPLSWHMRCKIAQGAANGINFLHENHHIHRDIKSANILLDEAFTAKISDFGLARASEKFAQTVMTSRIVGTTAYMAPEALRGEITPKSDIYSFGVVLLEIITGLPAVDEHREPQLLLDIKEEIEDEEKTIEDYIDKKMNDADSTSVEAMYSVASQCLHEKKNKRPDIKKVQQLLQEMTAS

[2] = Oral bioavailability in Sprague-Dawley rat at 5 to 10 mg/kg measured after 0.25 to 24 hrs by LC-MS analysis; type: ADME, organism-based; conditions: in vivo, dose lower 5 mg/kg, time lower 0.25 hrs, dose upper 10 mg/kg, time upper 24 hrs
[3] = Clearance in Sprague-Dawley rat at 2 mg/kg, iv measured after 5 mins to 24 hrs by LC-MS analysis; type: ADME, organism-based; conditions: in vivo, time 5-1440 min
[4] = biological target: Serine/threonine-protein kinase MRCK alpha (Homo sapiens, UniProt Q5VT25); test: Inhibition of MRCKa (unknown origin) by scintillation proximity assay
[5] = biological target: MAP kinase-activated protein kinase 2 (Homo sapiens, UniProt P49137); test: Inhibition of MAPKAP-K2 (unknown origin) by scintillation proximity assay
[6] = Inhibition of LPS-induced TNFalpha protein expression in human PBMC cells preincubated for 2 hrs followed by LPS stimulation and measured after 16 hrs by ELISA; type: functional, cell-based
[7] = Plasma protein binding in Sprague-Dawley rat by LC-MS analysis; type: ADME, cell-free; conditions: read-out: PPB (converted)
[8] = biological target: Serine/threonine-protein kinase 38 (Homo sapiens, UniProt Q15208); test: Inhibition of NDR1 (unknown origin) by scintillation proximity assay
[9] = biological target: CDK4/Cyclin D3 (Homo sapiens, UniProt P11802); test: Inhibition of CDK4/cyclinD3 (unknown origin) by scintillation proximity assay; type: protein-complex assay
[10] = biological target: Interleukin-1 receptor-associated kinase 1 (Homo sapiens, UniProt P51617); test: Binding affinity to IRAK1 (unknown origin) by kinomescan competition binding assay
[11] = Cytotoxicity against Splenocytes (unknown origin) at 3 uM; type: toxicity, cell-based; conditions: splenocyte
[12] = Inhibition of LPS-induced TNFalpha mRNA expression in immortalized mouse BMDM cells preincubated for 2 hrs followed by LPS stimulation and measured after 16 hrs by qPCR analysis; type: functional, cell-based
[13] = test system: Mus musculus; test: In vivo inhibition of LPS-induced TNF-alpha protein level in C57BL/6 mouse assessed as reduction in TNF-alpha level in serum at 50 to 100 mg/kg, po administered for 1 hr followed by LPS stimulation and measured after 3 hrs by ELISA; type: functional, organism-based; conditions: dose 50-100 mg/kg, time 4.0 hrs
[14] = Inhibition of LPS-induced IL-6 mRNA expression in immortalized mouse BMDM cells preincubated for 2 hrs followed by LPS stimulation and measured after 16 hrs by qPCR analysis; type: functional, cell-based
[15] = biological target: Dual specificity protein kinase CLK1 (Homo sapiens, UniProt P49759); test: Inhibition of CLK1 (unknown origin) by scintillation proximity assay
[16] = Clearance in Sprague-Dawley rat assessed as liver blood flow at 2 mg/kg, iv measured after 5 mins to 24 hrs by LC-MS analysis; type: ADME, organism-based; conditions: in vivo, time 5-1440 min
[17] = biological target: Mitogen-activated protein kinase kinase kinase 5 (Homo sapiens, UniProt Q99683); test: Inhibition of ASK1 (unknown origin) by scintillation proximity assay
[18] = Inhibition of LPS-induced IL-6 protein expression in immortalized mouse BMDM cells preincubated for 2 hrs followed by LPS stimulation and measured after 16 hrs by ELISA; type: functional, cell-based
[19] = Plasma protein binding in CD-1 mouse by LC-MS analysis; type: ADME, cell-free; conditions: read-out: PPB (converted)
[20] = Plasma protein binding in human by LC-MS analysis; type: ADME, cell-free; conditions: read-out: PPB
[21] = biological target: Tyrosine-protein kinase JAK1 (Homo sapiens, UniProt P23458); test: Inhibition of JAK1 (unknown origin) by scintillation proximity assay
[22] = biological target: Serine/threonine-protein kinase 17A (Homo sapiens, UniProt Q9UEE5); test: Inhibition of DRAK1 (unknown origin) by scintillation proximity assay
[23] = test system: BMDM; test: Cytotoxicity against immortalized mouse BMDM cells at 3 uM; type: toxicity, cell-based
[24] = biological target: Serine/threonine-protein kinase B-raf (Homo sapiens, UniProt P15056); test: Inhibition of B-Raf (unknown origin) by scintillation proximity assay
[25] = biological target: Receptor-interacting serine/threonine-protein kinase 2 (Homo sapiens, UniProt O43353); test: Inhibition of RIPK2 (unknown origin) by scintillation proximity assay
[26] = biological target: Receptor-interacting serine/threonine-protein kinase 1 (Homo sapiens, UniProt Q13546); test: Inhibition of RIPK1 (unknown origin) by scintillation proximity assay
[27] = biological target: Tyrosine-protein kinase BTK (Homo sapiens, UniProt Q06187); test: Inhibition of BTK (unknown origin) by scintillation proximity assay
[28] = biological target: Calcium/calmodulin-dependent protein kinase type 1 (Homo sapiens, UniProt Q14012); test: Inhibition of CaMKI (unknown origin) by scintillation proximity assay
[29] = biological target: Homeodomain-interacting protein kinase 1 (Homo sapiens, UniProt Q86Z02); test: Inhibition of HIPK1 (unknown origin) by scintillation proximity assay
[30] = Inhibition of CDK2/cyclinA (unknown origin) by scintillation proximity assay; parameters: species or system Homo sapiens
[31] = biological target: Epidermal growth factor receptor (Homo sapiens, UniProt P00533); test: Inhibition of EGFR (unknown origin) by scintillation proximity assay
[32] = biological target: Receptor-type tyrosine-protein kinase FLT3 (Homo sapiens, UniProt P36888); test: Inhibition of FLT3 (unknown origin) by scintillation proximity assay
[33] = Inhibition of LPS-induced IL-6 mRNA expression in human PBMC cells preincubated for 2 hrs followed by LPS stimulation and measured after 16 hrs by qPCR analysis; type: functional, cell-based
[34] = biological target: Serine/threonine-protein kinase PAK 1 (Homo sapiens, UniProt Q13153); test: Inhibition of PAK1 (unknown origin) by scintillation proximity assay
[35] = test system: MEF; test: Cytotoxicity against MEF cells at 3 uM; type: toxicity, cell-based; conditions: mouse
[36] = biological target: Dual specificity tyrosine-phosphorylation-regulated kinase 1A (Homo sapiens, UniProt Q13627); test: Inhibition of DYRK1A (unknown origin) by scintillation proximity assay
[37] = Inhibition of LPS-induced TNFalpha protein expression in immortalized mouse BMDM cells preincubated for 2 hrs followed by LPS stimulation and measured after 16 hrs by ELISA; type: functional, cell-based
[38] = biological target: cAMP-dependent protein kinase catalytic subunit beta (Homo sapiens, UniProt P22694); test: Inhibition of PKA-C beta (unknown origin) by scintillation proximity assay

Chain of Serine/threonine-protein kinase 17A (Q9UEE5 whole entry): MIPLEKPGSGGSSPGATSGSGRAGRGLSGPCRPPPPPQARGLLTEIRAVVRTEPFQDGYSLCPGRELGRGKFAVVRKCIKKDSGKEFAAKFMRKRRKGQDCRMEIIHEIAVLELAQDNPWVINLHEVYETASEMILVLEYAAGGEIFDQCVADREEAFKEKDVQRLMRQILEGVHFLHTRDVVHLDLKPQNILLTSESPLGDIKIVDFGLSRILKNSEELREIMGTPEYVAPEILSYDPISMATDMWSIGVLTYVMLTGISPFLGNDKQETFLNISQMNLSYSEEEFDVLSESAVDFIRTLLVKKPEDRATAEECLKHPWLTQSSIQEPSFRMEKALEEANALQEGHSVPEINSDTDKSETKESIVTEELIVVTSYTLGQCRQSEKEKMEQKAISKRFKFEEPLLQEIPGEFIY
Chain of Homeodomain-interacting protein kinase 1 (Q86Z02 whole entry): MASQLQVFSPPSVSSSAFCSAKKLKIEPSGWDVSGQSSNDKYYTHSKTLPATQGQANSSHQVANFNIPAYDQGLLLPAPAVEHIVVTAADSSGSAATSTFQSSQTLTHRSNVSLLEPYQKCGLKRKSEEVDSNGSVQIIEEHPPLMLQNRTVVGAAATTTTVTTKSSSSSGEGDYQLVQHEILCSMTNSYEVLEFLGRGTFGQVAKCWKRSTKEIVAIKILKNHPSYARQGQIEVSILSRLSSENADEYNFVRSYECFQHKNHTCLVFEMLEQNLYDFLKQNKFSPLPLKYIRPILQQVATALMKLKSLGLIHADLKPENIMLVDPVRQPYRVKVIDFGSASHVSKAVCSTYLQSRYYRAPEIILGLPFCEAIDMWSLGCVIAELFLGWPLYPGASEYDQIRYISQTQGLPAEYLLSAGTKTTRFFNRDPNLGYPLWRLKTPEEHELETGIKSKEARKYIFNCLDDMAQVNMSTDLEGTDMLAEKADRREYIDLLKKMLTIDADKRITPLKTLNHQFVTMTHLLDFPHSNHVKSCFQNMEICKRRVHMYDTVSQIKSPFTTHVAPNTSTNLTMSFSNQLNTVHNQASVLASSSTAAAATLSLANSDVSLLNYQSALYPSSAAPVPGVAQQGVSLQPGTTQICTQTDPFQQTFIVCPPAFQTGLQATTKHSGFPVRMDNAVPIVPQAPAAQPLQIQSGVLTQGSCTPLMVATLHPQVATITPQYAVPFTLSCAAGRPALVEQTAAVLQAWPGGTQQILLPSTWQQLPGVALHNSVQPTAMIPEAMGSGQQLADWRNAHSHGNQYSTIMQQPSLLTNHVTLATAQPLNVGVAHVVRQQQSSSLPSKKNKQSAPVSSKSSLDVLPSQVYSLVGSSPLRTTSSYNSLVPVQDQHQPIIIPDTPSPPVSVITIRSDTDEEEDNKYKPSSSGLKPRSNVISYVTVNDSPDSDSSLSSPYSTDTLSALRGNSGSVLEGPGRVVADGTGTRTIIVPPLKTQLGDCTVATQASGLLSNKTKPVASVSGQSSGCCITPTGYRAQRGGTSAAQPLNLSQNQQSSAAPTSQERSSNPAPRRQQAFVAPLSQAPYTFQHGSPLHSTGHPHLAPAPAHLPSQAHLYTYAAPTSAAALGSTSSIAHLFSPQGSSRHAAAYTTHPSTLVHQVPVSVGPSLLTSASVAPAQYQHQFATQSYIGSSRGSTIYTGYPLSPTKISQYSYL
Chain of Serine/threonine-protein kinase PAK 1 (Q13153 whole entry): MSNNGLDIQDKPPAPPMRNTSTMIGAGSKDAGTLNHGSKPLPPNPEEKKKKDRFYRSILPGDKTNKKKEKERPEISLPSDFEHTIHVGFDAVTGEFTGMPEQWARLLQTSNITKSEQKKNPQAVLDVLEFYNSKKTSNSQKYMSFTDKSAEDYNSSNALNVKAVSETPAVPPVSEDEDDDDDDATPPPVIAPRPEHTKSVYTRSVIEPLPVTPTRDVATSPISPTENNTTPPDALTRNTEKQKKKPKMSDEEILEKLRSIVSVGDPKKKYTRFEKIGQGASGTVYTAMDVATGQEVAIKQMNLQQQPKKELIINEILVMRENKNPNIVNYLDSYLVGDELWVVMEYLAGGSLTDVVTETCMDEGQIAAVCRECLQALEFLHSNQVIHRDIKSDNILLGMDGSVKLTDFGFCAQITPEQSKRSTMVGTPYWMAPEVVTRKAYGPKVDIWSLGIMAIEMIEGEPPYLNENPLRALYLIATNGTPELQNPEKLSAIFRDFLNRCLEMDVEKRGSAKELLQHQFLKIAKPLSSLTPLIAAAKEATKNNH
Chain of Calcium/calmodulin-dependent protein kinase type 1 (Q14012 whole entry): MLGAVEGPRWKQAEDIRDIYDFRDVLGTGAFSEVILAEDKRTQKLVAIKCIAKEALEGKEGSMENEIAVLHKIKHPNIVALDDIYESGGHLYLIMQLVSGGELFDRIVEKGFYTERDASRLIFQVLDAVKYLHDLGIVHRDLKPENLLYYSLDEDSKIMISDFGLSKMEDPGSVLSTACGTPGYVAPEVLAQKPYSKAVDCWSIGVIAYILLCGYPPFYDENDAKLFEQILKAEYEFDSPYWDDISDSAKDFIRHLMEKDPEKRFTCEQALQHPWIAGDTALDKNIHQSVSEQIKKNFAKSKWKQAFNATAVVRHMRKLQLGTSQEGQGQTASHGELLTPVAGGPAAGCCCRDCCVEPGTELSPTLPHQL
Chain of Serine/threonine-protein kinase B-raf (P15056 whole entry): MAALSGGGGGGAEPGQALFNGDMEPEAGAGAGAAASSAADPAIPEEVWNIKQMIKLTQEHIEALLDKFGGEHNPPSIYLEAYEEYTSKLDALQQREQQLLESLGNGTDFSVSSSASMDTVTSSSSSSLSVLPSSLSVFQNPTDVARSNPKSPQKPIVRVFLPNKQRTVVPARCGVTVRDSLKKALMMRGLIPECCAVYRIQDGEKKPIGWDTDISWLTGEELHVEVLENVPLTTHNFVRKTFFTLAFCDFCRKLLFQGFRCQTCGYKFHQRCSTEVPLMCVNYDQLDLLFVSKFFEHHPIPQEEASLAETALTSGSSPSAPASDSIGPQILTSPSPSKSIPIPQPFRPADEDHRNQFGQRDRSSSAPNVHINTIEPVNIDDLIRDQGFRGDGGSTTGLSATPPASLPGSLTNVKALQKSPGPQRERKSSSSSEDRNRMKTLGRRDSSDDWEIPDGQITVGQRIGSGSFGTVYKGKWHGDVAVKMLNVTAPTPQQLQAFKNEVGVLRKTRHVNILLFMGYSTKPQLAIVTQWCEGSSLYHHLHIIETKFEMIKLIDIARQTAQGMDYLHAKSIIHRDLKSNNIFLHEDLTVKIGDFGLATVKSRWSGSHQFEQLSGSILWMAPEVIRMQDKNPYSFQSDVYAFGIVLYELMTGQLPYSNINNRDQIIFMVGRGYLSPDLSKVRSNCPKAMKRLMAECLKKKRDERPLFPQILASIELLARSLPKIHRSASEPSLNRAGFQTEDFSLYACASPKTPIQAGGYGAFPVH
Chain of Interleukin-1 receptor-associated kinase 1 (P51617 whole entry): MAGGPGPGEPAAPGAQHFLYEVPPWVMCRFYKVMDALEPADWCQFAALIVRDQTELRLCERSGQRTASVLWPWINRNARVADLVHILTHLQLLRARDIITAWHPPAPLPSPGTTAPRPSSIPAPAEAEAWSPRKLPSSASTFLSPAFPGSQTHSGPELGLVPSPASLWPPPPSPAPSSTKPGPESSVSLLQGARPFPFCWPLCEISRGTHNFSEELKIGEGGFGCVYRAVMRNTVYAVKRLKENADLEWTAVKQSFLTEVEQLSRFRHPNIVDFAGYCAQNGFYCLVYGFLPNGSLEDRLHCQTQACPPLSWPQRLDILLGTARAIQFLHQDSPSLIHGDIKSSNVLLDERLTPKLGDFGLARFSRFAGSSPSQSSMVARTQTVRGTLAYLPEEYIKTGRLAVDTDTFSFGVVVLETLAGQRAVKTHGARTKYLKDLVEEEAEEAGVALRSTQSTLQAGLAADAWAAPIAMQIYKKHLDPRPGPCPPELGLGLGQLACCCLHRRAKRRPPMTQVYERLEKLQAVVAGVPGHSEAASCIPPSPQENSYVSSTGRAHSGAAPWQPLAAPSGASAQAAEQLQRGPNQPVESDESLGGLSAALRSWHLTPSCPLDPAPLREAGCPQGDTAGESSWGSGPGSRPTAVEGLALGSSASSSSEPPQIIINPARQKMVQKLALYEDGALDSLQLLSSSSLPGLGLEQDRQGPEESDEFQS
Chain of Tyrosine-protein kinase BTK (Q06187 whole entry): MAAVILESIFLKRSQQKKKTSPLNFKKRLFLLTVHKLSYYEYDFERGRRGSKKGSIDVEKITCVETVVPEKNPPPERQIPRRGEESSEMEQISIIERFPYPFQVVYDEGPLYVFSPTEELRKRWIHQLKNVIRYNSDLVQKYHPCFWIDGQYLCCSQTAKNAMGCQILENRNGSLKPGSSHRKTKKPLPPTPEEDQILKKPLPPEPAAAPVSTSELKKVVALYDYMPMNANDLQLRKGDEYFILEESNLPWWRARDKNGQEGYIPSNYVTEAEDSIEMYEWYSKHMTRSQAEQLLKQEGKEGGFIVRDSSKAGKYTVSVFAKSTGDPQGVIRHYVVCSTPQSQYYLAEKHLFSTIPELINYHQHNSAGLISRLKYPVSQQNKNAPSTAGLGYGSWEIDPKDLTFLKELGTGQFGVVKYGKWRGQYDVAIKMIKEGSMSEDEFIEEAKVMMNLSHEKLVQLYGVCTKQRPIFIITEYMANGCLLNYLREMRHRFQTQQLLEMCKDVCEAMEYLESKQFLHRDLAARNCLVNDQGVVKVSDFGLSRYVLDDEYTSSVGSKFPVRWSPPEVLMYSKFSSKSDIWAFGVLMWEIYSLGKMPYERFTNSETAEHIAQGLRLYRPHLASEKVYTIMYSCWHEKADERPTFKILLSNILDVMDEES

Molecule `COc1nc2c(cc1C(=O)Nc1cccc(-c3cnn(C)c3)n1)CC(C)(C)O2` has a pIC50 [1] of 7.29.
In the case of `CCOc1nc2c(cc1C(=O)Nc1cccc(C(F)(F)F)n1)CC(C)(C)O2`, the pIC50 [1] was 6.71.
`CCOc1nc2c(cc1C(=O)Nc1cnn3cccnc13)CC(C)(C)O2` gave a pIC50 [1] of 7.02.
Work on `CCOc1nc2c(cc1C(=O)Nc1cccc(C)n1)CC(C)(C)O2` yielded a pIC50 [1] of 6.95.
`CCOc1nc2c(cc1C(=O)Nc1cccc(-c3cnn(C)c3)n1)CC(C)(C)O2` showed a bioavailability [2] of 3.6% and a clearance [3] of 43 mL/min/kg.
`Cn1cc(-c2cccc(NC(=O)c3cc4c(nc3OC3CCNC3)OC(C)(C)C4)n2)cn1` (stereo unspecified) showed a pIC50 [1] of 6.42.
In the case of `CC(C)Oc1nc2c(cc1C(=O)Nc1cccc(-c3cnn(C)c3)n1)CC(C)(C)O2`, the bioavailability [2] was 7.5%, the clearance [3] was 44 mL/min/kg and the pIC50 [1] was 8.24.
Molecule `Cn1cc(-c2cccc(NC(=O)c3cc4c(nc3O[C@H]3C[C@H](O)C3)OC(C)(C)C4)n2)cn1` has a bioavailability [2] of 11% and a clearance [3] of 18 mL/min/kg.
With `CN1CCC(Oc2nc3c(cc2C(=O)Nc2cccc(-c4cnn(C)c4)n2)CC(C)(C)O3)C1` (stereo unspecified) the pIC50 [1] was 7.13.
Molecule `CCOc1nc2c(cc1C(=O)Nc1cccc(C(F)F)n1)CC(C)(C)O2` has a pIC50 [1] of 7.32.
Work on `Cn1cc(-c2cccc(NC(=O)c3cc4c(nc3O[C@H]3C[C@@H](O)C3)OC(C)(C)C4)n2)cn1` yielded a pIC50 [4] of less than 4.52, a pIC50 [5] of less than 4.52 and a pIC50 [6] of 7.27. The fraction unbound [7] was 0.03, the pIC50 [8] was 4.78 and the pIC50 [9] was less than 4.52. The pKd [10] was 7.89, the Activity [11] was “Toxic” and the pIC50 [12] was 5.92. For the same molecule, the bioavailability [2] was 21%, the inhibition [13] was “Active” and the pIC50 [14] was 6.67. For the same molecule, the pIC50 [15] was 8.05, the LBF [16] was less than 30% and the pIC50 [17] was less than 4.52. For the same molecule, the pIC50 [18] was 6.88, the fraction unbound [19] was 0.02 and the fraction unbound [20] was 0.01. It also gave a pIC50 [21] of less than 4.52, a pIC50 [22] of 6.10 and a clearance [3] of 12 mL/min/kg. For the same molecule, the Activity [23] was “Toxic”, the pIC50 [24] was 4.59 and the pIC50 [25] was 5.08. The pIC50 [26] was 5.33, the pIC50 [27] was less than 4.52 and the pIC50 [28] was less than 4.52. For the same molecule, the pIC50 [29] was 4.58, the pIC50 [30] was 5.52 and the pIC50 [31] was less than 4.52. The pIC50 [32] was 7.96, the pIC50 [33] was 6.25 and the pIC50 [34] was less than 4.52. For the same molecule, the Activity [35] was “Toxic”, the pIC50 [36] was 7.47 and the pIC50 [37] was 6.31. The pIC50 [38] was less than 4.52.
`Cn1cc(-c2cccc(NC(=O)c3cc4c(nc3OC3CC3)OC(C)(C)C4)n2)cn1` showed a bioavailability [2] of 1.6% and a clearance [3] of 43 mL/min/kg.
With `Cn1cc(-c2cccc(NC(=O)c3cc4c(nc3OC3CCC3)OC(C)(C)C4)n2)cn1` the bioavailability [2] was 3.1%, the clearance [3] was 41 mL/min/kg and the pIC50 [1] was 8.22.
With `CNCCOc1nc2c(cc1C(=O)Nc1cccc(-c3cnn(C)c3)n1)CC(C)(C)O2` the pIC50 [1] was 6.95.
Work on `Cn1cc(-c2cccc(NC(=O)c3cc4c(nc3OC3CCCC3)OC(C)(C)C4)n2)cn1` yielded a pIC50 [1] of 8.24.
Molecule `CCOc1nc2c(cc1C(=O)Nc1cccc(-c3ccnn3C)n1)CC(C)(C)O2` has a pIC50 [1] of 7.12.
`CCOc1nc2c(cc1C(=O)Nc1cccc(OC)n1)CC(C)(C)O2` showed a pIC50 [1] of 7.06.
Molecule `CCOc1nc2c(cc1C(=O)Nc1cnn(C)c1)CC(C)(C)O2` has a pIC50 [1] of less than 5.22.
`Cn1cc(-c2cccc(NC(=O)c3cc4c(nc3O[C@@H]3CCOC3)OC(C)(C)C4)n2)cn1` gave a bioavailability [2] of 6.2% and a clearance [3] of 31 mL/min/kg.
Work on `CCOc1nc2c(cc1C(=O)Nc1cccc(-c3ccn(C)n3)n1)CC(C)(C)O2` yielded a pIC50 [1] of 5.86.
For `Cn1cc(-c2cccc(NC(=O)c3cc4c(nc3OC3COC3)OC(C)(C)C4)n2)cn1`, the bioavailability [2] was 1.5% and the clearance [3] was 58 mL/min/kg.
